Consider two compounds from paper PMC3815685 (ACS chemical biology, 2013).

Usually IC50 stands for the concentration needed to halve the response being measured. A high value points to weaker potency.

One assay addresses PiCSAD (Polaribacter irgensii, UniProt A4C1C8). The assay is described as follows: decarboxylation, OPA-HPLC, partially purified enzyme. The assay is classed as biochemical. The settings on record: PBS pH 7.4, 10 μM PLP, 4 °C.
A further assay deals with T1, hCSAD (Homo sapiens, UniProt Q9Y600).
T1 sequence (Q9Y600 1-493): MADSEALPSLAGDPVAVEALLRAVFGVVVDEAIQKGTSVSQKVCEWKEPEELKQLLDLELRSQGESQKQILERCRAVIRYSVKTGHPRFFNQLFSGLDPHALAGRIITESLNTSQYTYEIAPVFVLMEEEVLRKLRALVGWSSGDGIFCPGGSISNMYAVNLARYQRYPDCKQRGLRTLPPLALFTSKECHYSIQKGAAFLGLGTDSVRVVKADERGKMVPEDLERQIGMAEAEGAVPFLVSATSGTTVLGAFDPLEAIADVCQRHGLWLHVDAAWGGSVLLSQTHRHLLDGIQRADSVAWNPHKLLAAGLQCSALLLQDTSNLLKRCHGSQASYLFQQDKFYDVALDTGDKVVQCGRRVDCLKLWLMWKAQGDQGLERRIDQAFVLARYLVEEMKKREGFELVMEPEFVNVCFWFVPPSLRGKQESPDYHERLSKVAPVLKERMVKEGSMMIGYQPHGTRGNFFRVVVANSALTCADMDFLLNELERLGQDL
The assay is described as follows: inhibition of CSA decarboxylation, OPA-HPLC of hypotaurine/taurine. The assay is classed as biochemical.

In the case of `N[C@@H](CS(=O)O)C(=O)O` [CSA, cysteine sulfinic acid], the “decarboxylation, OPA-HPLC, partially purified enzyme” value on PiCSAD was “showed decarboxylation of CSA but no detectable activity towards CA or L-Glu”.

Consider `N[C@@H](CCC(=O)O)C(=O)O` [L-Glu, L-glutamic acid], for which inhibition against hCSAD was half-maximal at 1100 ± 100 µM (IC50).
